# Assay results from patent publication US11472845B2, “Antitumor peptide and use thereof” (TOAGOSEI CO., LTD., priority 2019, dated 2022).
# Read-outs that look alike come from different tables or passages of the source. Ends that are not written are not given here.
# How the values were obtained:
# [1] = system: human gastric cancer cell lines (FU97); assay type: cell-based; conditions: for Cell viability (%) of test cells: human, 48 h
# Method: (§1) The antitumor activity of Sample 1 synthesized in the above Test Example 1 with respect to human-derived cultured tumor cells was evaluated. Currently commercially available human gastric cancer cell lines (FU97), human alveolar basal epithelial adenocarcinoma cell lines (A549), human breast cancer cell lines (MDA-MB-231), and human melanoma cell lines (A375) were prepared as test tumor cells. In addition, normal human mammary epithelial cell culture lines (MCF-12F) were prepared for comparison. A DMEM culture medium including 10 μg/mL of insulin, 50 unit/mL of penicillin, 50 μg/mL of streptomycin, and 10% fetal bovine serum (FBS) (product, commercially available from Wako Pure Chemical Industries, Ltd.) The above five types of cell lines were cultured in respective designated culture solutions. The cell lines were cultured so that the number of cells per well in a 96-hole (well) plate was about 5×10^3. Here, an amount of the culture solution per well was 100 μL. The 96-well plate was then placed in a CO2 incubator. Then, pre-incubation was performed under conditions of 37° C. and 5% CO2 for about 1 day (about 23 hours). Then, regarding the culture solution for the peptide addition area, culture solutions containing Sample 1 for each concentration were prepared so that the concentration of Sample 1 was 6.25 μM, 12.5 μM or 25 μM and supplied to wells (that is, wells after the pre-incubation) in which 90 μL of cells to be evaluated were cultured in each well. On the other hand, regarding the culture solution for the comparative test area, a culture solution to which no Sample 1 was added was prepared, and supplied to wells (that is, wells after the pre-incubation) in which 90 μL of cells to be evaluated were cultured in each well. The 96-well plate was then placed in a CO2 incubator, and incubated under conditions of 37° C. and 5% CO2 for 48 hours. […] Then, the absorbance at a wavelength of 450 nm (value corrected by the absorbance at a wavelength of 620 nm: A450-A620) was measured based on the reduction of the tetrazolium salt in the culture solution. Then, the cell viability was calculated according to a colorimetric method. In the test areas (test areas 1 to 3) in the peptide addition area, the cell viability of each of the above five types of cell lines was calculated as a relative value when a measured value (measurement absorbance) of the comparative test area in the same cell lines was set as 100%. That is, regarding each of the above five types of cell lines, the cell viability (%) was calculated by dividing the measurement absorbance of the test areas (test areas 1 to 3) in the peptide addition area by the measurement absorbance of the comparative test area in the same cell lines and multiplying by 100.
# [2] = system: human breast cancer cell lines (MDA-MB-231); assay type: cell-based; conditions: for Cell viability (%) of test cells: human, 48 h
# Method: as §1, with “0.1 mM” for “10 μg/mL”, “non-essential amino acids,” for “insulin,”, “FBS.” for “fetal bovine serum (FBS) (product, commercially available from Wako Pure Chemical Industries, Ltd.)”
substance,measurement,setting,value
MACLGFQRHKAQLNLATRTWPCTLLFFLLFIPVFCKKRTLRKTDRKKR-NH2 (cysteines drawn unpaired) [Sample 1],Specific cell viability of test tumor cells,"[1]; FU97, 12.5 μM Sample 1, (cell viability of test tumor cells)/(cell viability of MCF-12F cells)×100",23.0
same,Cell viability (%) of test cells,[1]; 6.25 μM,29.4%
same,Cell viability (%) of test cells,[1]; 12.5 μM,26.3%
same,Cell viability (%) of test cells,[1]; 25 μM,30%
same,Specific cell viability of test tumor cells,"[2]; MDA-MB-231, 12.5 μM Sample 1, (cell viability of test tumor cells)/(cell viability of MCF-12F cells)×100",47.9
same,Cell viability (%) of test cells,[2]; 6.25 μM,67.8%
same,Cell viability (%) of test cells,[2]; 12.5 μM,54.7%
same,Cell viability (%) of test cells,[2]; 25 μM,41.6%
